In patent US7741520B2, “Sulfonanilide analogs as selective aromatase modulators (SAMs)” (The Ohio State University Research Foundation, priority 2006, dated 2010):

Columns and labels:
[1] = test system: CYP19 mRNA expression in SK-BR-3 cells; assay: CYP19 mRNA expression by real-time RT-PCR in SK-BR-3 cells; assay type: cell-based, human; settings: 5 μM, 24 h (FIG. 14)
Experimental: (§1) RNA Extraction. Total RNA was isolated using the TRIzol reagent according to the manufacturer's protocol. Total RNA pellets were dissolved in DNase- and RNase-free water and quantitated using a spectrophotometer. The quality of RNA samples was determined by electrophoresis through agarose gels and staining with ethidium bromide; the 18S and 28S rRNA bands were visualized under ultraviolet light.
(§2) cDNA Synthesis. Isolated total RNA (2 μg) was treated with DNase I Amplification grade, according to the recommended protocol to eliminate any DNA before reverse transcription. Treated total RNA was denatured at 65° C. for 5 min in the presence of 2.5 ng/μL random hexamers and 0.5 mM dNTP mix. The samples were snap-cooled on ice and centrifuged briefly. Complementary DNA (cDNA) was synthesized using Superscript II reverse transcriptase according to the recommended protocol. Briefly, the reactions were conducted in the presence of 1× First-Strand Buffer and 20 mM DTT at 42° C. for 50 min and consequently inactivated at 70° C. for 15 min. The cDNA generated was used as a template in realtime PCR reactions.
Real-Time PCR. Real-time PCR was performed using the Opticon 2 system from MJ Research (Waltham, Mass.). For the CYP19 total gene the PCR reaction mixture consisted of Taqman Universal PCR Master Mix (Applied Biosystems), 600 nM of CYP19 primer (sense: 5′-TGTCTCTTTGTTCTTCATGCTATTTCTC-3′ (SEQ ID NO: 1); antisense: 5′-TCACCAATAACAGTCTGGATTTCC-3′) (SEQ ID NO: 2); 250 nM Taqman probe (6FAM 5′-TGCAAAGCACCCTAATGTTGAAGAGGCAAT-3′TAMRA) (SEQ ID NO: 3) (Invitrogen), 18S rRNA (Applied Biosystems, Foster City, Calif.), and 2.0 μL of each RT sample in a final volume of 20 μL. The Taqman probe was designed to anneal to a specific sequence of the aromatase gene between the forward and the reverse primers. Cycling conditions were 50° C. for 2 mm and 95° C. for 10 mm, followed by 50 cycles at 95° C. for 15 s and 60° C. for 1 mm.
as §1, with “extraction.” for “Extraction.”, “DNase,” for “DNase- and”
as §2, with “synthesis.” for “Synthesis.”, “real-time” for “realtime”
Real-time PCR. Real-time PCR was performed using the Opticon™ 2 system from MJ Research (Waltham, Mass.). For the CYP19 total gene the PCR reaction mixture consisted of Taqman® Universal PCR Master Mix (Applied Biosystems), 600 nM of CYP19 primer (sense: 5′-TGTCTCTTTGTTCTTCATGCTATTTCTC-3′ (SEQ ID NO: 1); antisense: 5′-TCACCAATAACAGTCTGGATTTCC-3′) (SEQ ID NO: 2); 250 nM Taqman probe (6FAM 5′-TGCAAAGCACCCTAATGTTGAAGAGGCAAT-3′TAMRA) (SEQ ID NO: 3) (Invitrogen), and 2.0 μL of each cDNA sample in a final volume of 20 μL. […]

SMILES	melting point	CYP19 gene expression [1]
CN(c1ccc([N+](=O)[O-])cc1OCc1ccc(F)cc1)S(C)(=O)=O [Compound 33c, N-methyl-N-[2-(4′-fluorobenzyloxy)-4-nitrophenyl]methanesulfonamide]	168 to 169 °C	significantly decreased CYP19 gene expression
CN(c1ccc([N+](=O)[O-])cc1OCc1ccccc1)S(C)(=O)=O [Compound 26f, N-methyl-N-(2-benzyloxy-4-nitrophenyl) methanesulfonamide]	–	significantly decreased CYP19 gene expression
CN(c1ccc([N+](=O)[O-])cc1OCc1ccccc1-c1ccccc1)S(C)(=O)=O [Compound 29c, N-methyl-N-[2-(2′-phenylbenzyloxy)-4-nitrophenyl]methanesulfonamide]	128 to 129 °C	significantly decreased CYP19 gene expression
CN(c1ccc([N+](=O)[O-])cc1OCc1ccc2ccccc2c1)S(C)(=O)=O [Compound 28c, N-methyl-N-[2-(β-naphthylmethoxy) 4-nitrophenyl]methanesulfonamide]	119 to 121 °C	significantly decreased CYP19 gene expression
Cc1ccc(COc2cc([N+](=O)[O-])ccc2N(C)S(C)(=O)=O)cc1 [Compound 30c, N-methyl-N-[2-(4′-methylbenzyloxy)-4-nitrophenyl]methanesulfonamide]	96 to 98 °C	–
CN(c1ccc([N+](=O)[O-])cc1OCc1ccc([N+](=O)[O-])cc1)S(C)(=O)=O [Compound 27c, N-methyl-N-[2-(4′-nitrobenzyloxy)-4-nitrophenyl]methanesulfonamide]	–	significantly decreased CYP19 gene expression
